Assay results taken from patent EP0080305A1, “Antiviral 2'-deoxyuridines, their preparation and use” (BEECHAM GROUP PLC, priority 1981, dated 1983).
Where a name gives a salt, the structure may show the parent alone. Read-outs that look alike come from different tables or passages of the source.

Tests used:
[1] = Minimum concentration killing the Vero cell monolayer, read in the plaque reduction test; type: cell-based, African Green Monkey; details: african green monkey; minimum concentration which killed the cell monolayer; virus-infected Vero cells, 6 days at 37°C; read-out: MTD
Method: (§1) Vero (African Green Monkey Kidney) cells were grown to confluence in 6 well multidishes, each well being 3.5 cm in diameter. The cells were incubated with Herpes simplex type 1 virus (HFEM strain) and overlaid with 0.5 mL of 0.9% agarose (w/v) in maintenance medium containing the test compound at a range of concentrations from 3 µg/mL in half-log dilution steps. The virus infected cultures were then incubated at 37 °C for 6 days before fixing in 4% formaldehyde solution and staining with carbolfuchsin. The dishes were then examined to find what concentration of test compound causing a 50% reduction in the number of virus plaques formed (PDD50 value) and the minimum concentration of test compound which killed the cell monolayer, leaving a clear zone devoid of cells and virus plaques (MTD).

[2] = system: Herpes simplex type 1 virus (HFEM strain); experiment: Plaque reduction test in Vero cells infected with Herpes simplex type 1 virus; type: cell-based
Method: as §1

[3] = Human alphaherpesvirus 1, 144 h, concentration causing a 50% reduction in the number of virus plaques, 6 days at 37°C, read-out: PDD50 (the source's name)
[4] = Human alphaherpesvirus 1, 144 h, same PDD50 values given in µM, 6 days at 37°C, read-out: PDD50 (the source's name)
[5] = Human alphaherpesvirus 1, Vero, 144 h, read-out: PDD50, concentration causing a 50% reduction in the number of virus plaques, 6 days at 37°C
[6] = Human alphaherpesvirus 1, Vero, 144 h, read-out: PDD50, same PDD50 values given in µM, 6 days at 37°C

Structure (SMILES) | MCC at 144 h [1] [µg/mL] | IC50 [2, 3] [µg/mL] | IC50 [2, 4] [µM] | IC50 [2, 5] [µg/mL] | IC50 [2, 6] [µM] | PDD50 ([2]; concentration causing a 50% reduction in the number of virus plaques, 6 days at 37°C, trifluoroacetate) [µg/mL] | IC50 ([2]; read-out: PDD50, same PDD50 values given in µM, 6 days at 37°C, trifluoroacetate) [µM]
CC(C)(C)OC(=O)N[C@@H](Cc1ccccc1)C(=O)OC[C@H]1O[C@@H](n2cc(/C=C/Br)c(=O)[nH]c2=O)C[C@@H]1O [Example 3, E-5-(2-Bromovinyl)-5'-O-(tertbutoxycarbonylphenylalanyl)-2'-deoxyuridine] | > 100 | 0.25 | 0.43 |  |  |  | 
CC(C)(C)OC(=O)N1CCC[C@H]1C(=O)OC[C@H]1O[C@@H](n2cc(/C=C/Br)c(=O)[nH]c2=O)C[C@@H]1O [Example 28] | 100 | 2.12 | 4 |  |  |  | 
NC(Cc1ccc(F)cc1)C(=O)OC[C@H]1O[C@@H](n2cc(/C=C/Br)c(=O)[nH]c2=O)C[C@@H]1OC(=O)C(N)Cc1ccc(F)cc1 (mixture of isomers) [Example 15, E-5-(2-Bromovinyl)-3',5'-di-(p-fluoro-DL-phenylalanyl)-2'-deoxyuridine bis trifluoroacetate] | > 100 | 0.8 | 0.9 |  |  |  | 
CSCC[C@H](N)C(=O)OC[C@H]1O[C@@H](n2cc(/C=C/Br)c(=O)[nH]c2=O)C[C@@H]1OC(=O)[C@@H](N)CCSC [Example 32, E-5-(2-Bromovinyl)-3',5'-di-L-methionyl-2'-deoxyuridine bis trifluoroacetate] | > 100 |  |  | 0.26 | 0.32 |  | 
NC(Cc1ccccc1)C(=O)O[C@H]1C[C@H](n2cc(/C=C/Br)c(=O)[nH]c2=O)O[C@@H]1CO (some centres unmarked) [Example 8, E-5-(2-Bromovinyl)-3'-O-phenylalanyl-2'-deoxyuridine trifluoroacetate] | > 100 |  |  | 0.45 | 0.76 |  | 
CC(C)(C)OC(=O)NCC(=O)OC[C@H]1O[C@@H](n2cc(/C=C/Br)c(=O)[nH]c2=O)C[C@@H]1O [Example 6, E-5-(2-Bromovinyl)-5'-O-(tert.-butoxycarbonylglycyl)-2'-deoxyuridine] | > 100 | 0.54 | 1.1 |  |  |  | 
CC(C)(C)OC(=O)N1CCC[C@H]1C(=O)O[C@H]1C[C@H](n2cc(/C=C/Br)c(=O)[nH]c2=O)O[C@@H]1CO [Example 29, E-5-(2-Bromovinyl)-3'-(t-butoxycarbonyl-L-prolyl)-2'-decxyuridine] | 100 | 0.64 | 1.21 |  |  |  | 
NCC(=O)OC[C@H]1O[C@@H](n2cc(/C=C/Br)c(=O)[nH]c2=O)C[C@@H]1OC(=O)CN [Example 14, E-5-(2-Bromovinyl)-3',5'-di-glycyl-2'-deoxyuridine bis trifluoroacetate] | > 100 |  |  | 0.36 | 0.53 |  | 
CC(C)C[C@H](N)C(=O)OC[C@H]1O[C@@H](n2cc(/C=C/Br)c(=O)[nH]c2=O)C[C@@H]1OC(=O)[C@@H](N)CC(C)C [Example 16, E-5-(2-Bromovinyl)-3',5'-di-L-leucyl-2'-deoxyuridine trifluoroacetate] | > 100 |  |  |  |  | 0.02 | 0.025
CC(C)(C)OC(=O)N[C@H](Cc1ccccc1)C(=O)OC[C@H]1O[C@@H](n2cc(/C=C/Br)c(=O)[nH]c2=O)C[C@@H]1OC(=O)[C@@H](Cc1ccccc1)NC(=O)OC(C)(C)C [Example 20, E-5-(2-Bromovinyl)-3',5'-di-(t-butoxy-carbonyl-D-phenylalanyl)-2'-deoxyuridine] | > 100 | > 100 |  |  |  |  | 
CC(C)C[C@H](NC(=O)OC(C)(C)C)C(=O)OC[C@H]1O[C@@H](n2cc(/C=C/Br)c(=O)[nH]c2=O)C[C@@H]1OC(=O)[C@H](CC(C)C)NC(=O)OC(C)(C)C [Example 12, E-5-(2-Bromovinyl)-3',5'-di(t-butoxycarbonyl-L-leucyl)-2^1-deoxyuridine] | 100 | 0.86 | 1.13 |  |  |  | 
CC(C)C[C@@H](N)C(=O)OC[C@H]1O[C@@H](n2cc(/C=C/Br)c(=O)[nH]c2=O)C[C@@H]1OC(=O)[C@H](N)CC(C)C [Example 30, E-5-(2-Bromovinyl)-3',5'-di-D-leucyl-2'-deoxyuridine bis trifluoroacetate] | > 100 |  |  | 0.16 | 0.2 |  | 
CSCC[C@H](NC(=O)OC(C)(C)C)C(=O)OC[C@H]1O[C@@H](n2cc(/C=C/Br)c(=O)[nH]c2=O)C[C@@H]1OC(=O)[C@H](CCSC)NC(=O)OC(C)(C)C [Example 21, E-5-(2-Bromovinyl)-3',5'-di-(t-butoxy-carbonyl-L-methionyl)-2'-deoxyuridine] | > 100 | 1.71 | 2.15 |  |  |  | 
CC(C)(C)OC(=O)NCCCC[C@H](NC(=O)OC(C)(C)C)C(=O)OC[C@H]1O[C@@H](n2cc(/C=C/Br)c(=O)[nH]c2=O)C[C@@H]1OC(=O)[C@H](CCCCNC(=O)OC(C)(C)C)NC(=O)OC(C)(C)C [Example 26, E-5-(2-Bromovinyl)-3',5'-bis-(Nβ,Nε-di-t-butoxycarbonyl-L-lysyl)-2'-deoxyuridine] | > 100 | 90 | 91 |  |  |  | 
CC(C)(C)OC(=O)N1CCC[C@H]1C(=O)OC[C@H]1O[C@@H](n2cc(/C=C/Br)c(=O)[nH]c2=O)C[C@@H]1OC(=O)[C@@H]1CCCN1C(=O)OC(C)(C)C [Example 27, E-5-(2-Brcmovinyl)-3',5'-di-(t-butoxycarbonyl-L-prolyl)-2'-deoxyuridine] | 100 | 3.51 | 4.83 |  |  |  | 
CC(C)(C)OC(=O)NCC(=O)O[C@H]1C[C@H](n2cc(/C=C/Br)c(=O)[nH]c2=O)O[C@@H]1CO [Example 5, E-5-(2-Bromovinyl)-3'-O-(tert.butoxycarbonylglycyl)-2'-deoxyuridine] | > 100 | 0.48 | 0.98 |  |  |  | 
CC(C)[C@H](N)C(=O)OC[C@H]1O[C@@H](n2cc(/C=C/Br)c(=O)[nH]c2=O)C[C@@H]1OC(=O)[C@@H](N)C(C)C [Example 33, E-5-(2-Bromovinyl)-3',5'-di-L-valyl-2'-deoxyuridine bis trifluoroacetate] | > 100 |  |  | 0.24 | 0.32 |  | 
O=C(O[C@H]1C[C@H](n2cc(/C=C/Br)c(=O)[nH]c2=O)O[C@@H]1CO)[C@@H]1CCCN1 [Example 37, E-5-(2-Bromovinyl)-3'-L-prolyl-2'-deoxyuridine trifluoroacetate] | > 100 |  |  | 0.68 | 1.25 |  | 
CC(C)(C)OC(=O)N[C@@H](Cc1ccccc1)C(=O)OC[C@H]1O[C@@H](n2cc(/C=C/Br)c(=O)[nH]c2=O)C[C@@H]1OC(=O)[C@H](Cc1ccccc1)NC(=O)OC(C)(C)C [Example 1, E-5-(2-Bromovinyl)-3',5'-di-O-(tertbutoxycarbonylphenylalanyl)-2'-deoxyuridine] | > 100 | 1.1 | 1.33 |  |  |  | 
NC(=O)CC[C@H](N)C(=O)OC[C@H]1O[C@@H](n2cc(/C=C/Br)c(=O)[nH]c2=O)C[C@@H]1OC(=O)[C@@H](N)CCC(N)=O [Example 39, bis trifluoroacetate] | > 100 |  |  | 0.42 | 0.51 |  | 
CC(C)(C)OC(=O)NCC(=O)OC[C@H]1O[C@@H](n2cc(/C=C/Br)c(=O)[nH]c2=O)C[C@@H]1OC(=O)CNC(=O)OC(C)(C)C [Example 4, E-5-(2-Bromovinyl)-3',5'-di-O-(tert.butoxycarbonylglycyl)-2'-deoxyurdine] | > 100 | 1.95 | 3.01 |  |  |  | 
